Measurements reported in patent US5686563A, “Biologically active peptides having n-terminal substitutions” (priority 1995, dated 1997).
Square brackets hold non-standard residues; d marks the D form. Ends that are not written are not given here. Peptide text beside a SMILES is read from it. * marks the point of attachment. hArg = N=C(N)NCCCC[C@H](N)C(=O)O; Octanoyl = CCCCCCCC(=O)*

Tests used:
Assay in all cases: Anaerobic antimicrobial susceptibility test (MIC)
Format in all cases: cell-based
P. gingivalis = conditions: 37° C., 24-48 hours; for MIC P. gingivalis (strain) W50: strain W50, BHI broth; for MIC P. gingivalis (strain) 9-14K-1: strain 9-14K-1, BHI broth; for MIC P. gingivalis (strain) 381: strain 381, BHI broth; for MIC P. gingivalis (strain) A7A1-28: strain A7A1-28, BHI broth; for MIC P. gingivalis (strain) FAY-19M-1: strain FAY-19M-1, BHI broth
S. mutans = conditions: BHI broth, 37° C., 24-48 hours
A. viscosus = conditions: BHI broth, 37° C., 24-48 hours

Row | Compound | MIC P. gingivalis (strain) W50 (P. gingivalis) [μl/ml] | MIC P. gingivalis (strain) 9-14K-1 (P. gingivalis) [μl/ml] | MIC P. gingivalis (strain) 381 (P. gingivalis) [μl/ml] | MIC P. gingivalis (strain) A7A1-28 (P. gingivalis) | MIC P. gingivalis (strain) FAY-19M-1 (P. gingivalis) [μl/ml] | MIC S. mutans (S. mutans) [μl/ml] | MIC A. viscos (A. viscosus) [μl/ml]
1 | CC[C@H](C)[C@H](NC(=O)[C@H](CCCCNC(=N)N)NC(=O)CNC(=O)[C@H](C)NC(=O)[C@@H](NC(=O)[C@H](CCCCNC(=N)N)NC(=O)[C@H](C)NC(=O)[C@@H](NC(=O)[C@H](CCCCNC(=N)N)NC(=O)CNC(=O)[C@H](C)NC(=O)[C@@H](NC(=O)[C@H](CCCCNC(=N)N)NC(=O)[C@H](C)NC(=O)[C@@H](NC(=O)[C@H](CCCCNC(=N)N)NC(=O)CNC(=O)[C@H](C)NC(=O)[C@@H](NC(=O)[C@@H](N)CCCCNC(=N)N)[C@@H](C)CC)[C@@H](C)CC)[C@@H](C)CC)[C@@H](C)CC)[C@@H](C)CC)C(=O)N[C@@H](C)C(N)=O [(SEQ ID NO: 66)-NH2] (H-[hArg]IAG[hArg]IA[hArg]IAG[hArg]IA[hArg]IAG[hArg]IA-NH2) | 4 |  |  |  |  |  | 
2 | CCCCCCCC(=O)N[C@@H](CCCCN)C(=O)N[C@H](C(=O)N[C@@H](C)C(=O)NCC(=O)N[C@@H](CCCCN)C(=O)N[C@H](C(=O)N[C@@H](C)C(=O)N[C@@H](CCCCN)C(=O)N[C@H](C(=O)N[C@@H](C)C(=O)NCC(=O)N[C@@H](CCCCN)C(=O)N[C@H](C(=O)N[C@@H](C)C(=O)N[C@@H](CCCCN)C(=O)N[C@H](C(=O)N[C@@H](C)C(=O)NCC(=O)N[C@@H](CCCCN)C(=O)N[C@H](C(=O)N[C@@H](C)C(N)=O)[C@@H](C)CC)[C@@H](C)CC)[C@@H](C)CC)[C@@H](C)CC)[C@@H](C)CC)[C@@H](C)CC [Oct-(SEQ ID NO: 27)-NH2] (Octanoyl-KIAGKIAKIAGKIAKIAGKIA-NH2) | 16 |  |  |  |  |  | 
3 | CCCCCCCC(=O)N[C@@H](CCCCN)C(=O)N[C@H](C(=O)N[C@@H](C)C(=O)NCC(=O)N[C@@H](CCCCN)C(=O)N[C@H](C(=O)N[C@@H](C)C(=O)N[C@@H](CCCCN)C(=O)N[C@H](C(=O)N[C@@H](C)C(=O)NCC(=O)N[C@@H](CCCCN)C(=O)N[C@H](C(=O)N[C@@H](C)C(=O)N[C@@H](CCCCN)C(=O)N[C@H](C(=O)N[C@@H](C)C(=O)NCC(=O)N[C@@H](CCCCN)C(=O)N[C@H](C(=O)N[C@@H](C)C(=O)O)[C@@H](C)CC)[C@@H](C)CC)[C@@H](C)CC)[C@@H](C)CC)[C@@H](C)CC)[C@@H](C)CC [Oct-(SEQ ID NO: 27)-OH] (Octanoyl-KIAGKIAKIAGKIAKIAGKIA-OH) | 1 |  |  |  |  |  | 
4 | CCCCCCCC(=O)N[C@@H](CCCCNC(=N)N)C(=O)N[C@H](C(=O)N[C@@H](C)C(=O)NCC(=O)N[C@@H](CCCCNC(=N)N)C(=O)N[C@H](C(=O)N[C@@H](C)C(=O)N[C@@H](CCCCNC(=N)N)C(=O)N[C@H](C(=O)N[C@@H](C)C(=O)NCC(=O)N[C@@H](CCCCNC(=N)N)C(=O)N[C@H](C(=O)N[C@@H](C)C(=O)N[C@@H](CCCCNC(=N)N)C(=O)N[C@H](C(=O)N[C@@H](C)C(=O)NCC(=O)N[C@@H](CCCCNC(=N)N)C(=O)N[C@H](C(=O)N[C@@H](C)C(N)=O)[C@@H](C)CC)[C@@H](C)CC)[C@@H](C)CC)[C@@H](C)CC)[C@@H](C)CC)[C@@H](C)CC [Oct-(SEQ ID NO: 66)-NH2] (Octanoyl-[hArg]IAG[hArg]IA[hArg]IAG[hArg]IA[hArg]IAG[hArg]IA-NH2) | 2 |  |  |  |  |  | 
5 | CCCCCCCC(=O)N[C@@H](CCCCN)C(=O)N[C@H](C(=O)N[C@@H](C)C(=O)N[C@@H](CCCCN)C(=O)N[C@@H](CCCCN)C(=O)N[C@H](C(=O)N[C@@H](C)C(=O)N[C@@H](CCCCN)C(=O)N[C@H](C(=O)N[C@@H](C)C(=O)N[C@@H](CCCCN)C(=O)N[C@@H](CCCCN)C(=O)N[C@H](C(=O)N[C@@H](C)C(=O)N[C@@H](CCCCN)C(=O)N[C@H](C(=O)N[C@@H](C)C(=O)N[C@@H](CCCCN)C(=O)N[C@@H](CCCCN)C(=O)N[C@H](C(=O)N[C@@H](C)C(=O)O)[C@@H](C)CC)[C@@H](C)CC)[C@@H](C)CC)[C@@H](C)CC)[C@@H](C)CC)[C@@H](C)CC [Oct-(SEQ ID NO: 86)-OH] (Octanoyl-KIAKKIAKIAKKIAKIAKKIA-OH) | 1 |  |  |  |  |  | 
6 | (SEQ ID NO: 86)-OH: (Lys Ile Ala Lys Lys Ile Ala)3 unsubstituted at the N-terminal, C-terminal OH (H-KIAKKIAKIAKKIAKIAKKIA-OH) | 4 | 16 | 16 | 4 μl/ml | 8 | 16 | 32
7 | KIAGKIAKIAGKIAKIAGKIA-NH2 [(SEQ ID NO: 27)-NH2] | 4 |  |  |  |  |  | 
8 | KIAKKIAKIAKKIAKIAKKIA-NH2 [(SEQ ID NO: 86)-NH2] | 4 | 8 | 8 | 2 μl/ml |  | 4 | 16
9 | KVALKALKKVALKALKVALKAL-NH2 [(SEQ ID NO: 152)-NH2] | 4 | 4 | 32 | 4,8 μl/ml | 8 | 16 | 16
